According to US9126984B2, “4-(indol-3-yl)-pyrazole derivatives, pharmaceutical compositions and methods for use” (ITEOS THERAPEUTICS, priority 2013, dated 2015):

Assays:
[1] = target: T1, human recombinant TDO2 enzyme (Homo sapiens, UniProt P48775); test: Assay for TDO2 enzymatic activity determination; type: biochemical; conditions: human recombinant TDO2, L-Trp 1 mM, room temperature one hour, kynurenine absorbance at 480 nm
T1 construct: made in house
Experimental: To measure the TDO2 activity, the reaction mixture contained (final concentrations) potassium phosphate buffer (50 mM, pH 7.5), ascorbic acid (0.25 M), methylene blue (0.125 μM), catalase (40 units/mL, from bovine liver, Sigma), and human recombinant TDO2 enzyme (prepared as described in Dolusic et al. J. Med. Chem.; 2011, 54, 5320-5334; 0.9 μg) without or with the compounds of the present invention embodiments at the indicated concentrations (total volume 112.5 μL). The reaction was initiated by the addition of 37.5 μL of L-Trp (final concentration 1 mM) at room temperature. The reaction was conducted at room temperature during one hour and stopped by the addition of 30 μL of 30% (w/v) trichloroacetic acid.
To convert N-formylkynurenine into kynurenine, the reaction mixture was incubated at 65° C. for 30 min. Then 150 μL of the reaction mixture was mixed with 120 μL, of 2.5% (w/v) 4-(dimethylamino)-benzaldehyde in acetic acid and incubated for 5 min at room temperature. Kynurenine concentrations were determined by measuring the absorbance at 480 nm. A standard curve was made with pure kynurenine. The TDO activity was measured as described above using ten serial concentrations of certain embodiments of the compounds of the present invention. Data were fitted using the Prism software (GraphPad Software, Inc.).

[2] = target: T2, murine mastocytoma P815 cells overexpressing hTDO2 (Homo sapiens, UniProt P48775); test: Cellular assay for TDO2 activity determination; type: cell-based; conditions: P815 cells overexpressing hTDO2, overnight incubation at 37° C., kynurenine absorbance at 480 nm
T2 construct: expressed in transfected cells; host or cells: murine mastocytoma P815 cells
Experimental: The assay was performed in 96-well flat bottom plates seeded with murine mastocytoma P815 cells overexpressing hTDO2 (prepared as described in Pilotte et al., PNAS, 2012, 109(7), 2497-2502), at a concentration of 5×10^4 cells/well in a final volume of 200 μL. To determine TDO or IDO activity, the cells were incubated overnight at 37° C. at 5% CO2 in IMDM (Invitrogen) supplemented with 2% FBS and 2% penicillin/streptomycin in the presence of the compounds of the present invention, at different concentrations.
The plates were then centrifuged 5 min at 1000 rpm, and 100 μL of the supernatant were collected in a conical plate, 30 uL of TCA 30% were added and a further centrifugated at 3000×g for 10 minutes. 100 μL of the supernatant were collected in a flat bottomed plate and 100 μL of 2% (w/v) 4-(dimethylamino)-benzaldehyde in acetic acid and incubated for 5 min at room temperature. Kynurenine concentrations were determined by measuring the absorbance at 480 nm. A standard curve was made with pure kynurenine. The TDO activity was measured as described above using ten serial concentrations of the compounds of the present invention. Data were fitted using the Prism software (GraphPad Software, Inc.).

T1 sequence (P48775 whole entry): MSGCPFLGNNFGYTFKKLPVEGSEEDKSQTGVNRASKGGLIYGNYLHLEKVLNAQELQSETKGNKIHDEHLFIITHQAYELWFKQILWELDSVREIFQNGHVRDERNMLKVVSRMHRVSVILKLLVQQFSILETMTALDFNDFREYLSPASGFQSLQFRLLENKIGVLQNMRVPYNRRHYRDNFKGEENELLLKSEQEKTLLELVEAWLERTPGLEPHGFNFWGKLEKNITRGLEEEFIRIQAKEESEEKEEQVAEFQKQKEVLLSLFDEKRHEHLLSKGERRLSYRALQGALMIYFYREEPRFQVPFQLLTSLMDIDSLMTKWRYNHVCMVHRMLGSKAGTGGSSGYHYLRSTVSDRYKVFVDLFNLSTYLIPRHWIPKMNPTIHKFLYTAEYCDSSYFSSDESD
T2 sequence (P48775 whole entry): as above

| IC50 [1] [nM] | melting point [°C] | IC50 [2] [nM] | SMILES |
| --- | --- | --- | --- |
| 1000 to 10000 | 179.5 to 180.8 | – | CC(=O)NCCn1cc(-c2c[nH]c3cc(F)ccc23)cn1 [Example 21, N-(2-(4-(6-fluoro-1H-indol-3-yl)-1H-pyrazol-1-yl)ethyl)acetamide] |
| 1000 to 10000 | – | < 1000 | Fc1ccc2c(-c3cnn(CCN4CCCC4)c3)c[nH]c2c1 [Example 29, 6-fluoro-3-(1-(2-(pyrrolidin-1-yl)ethyl)-1H-pyrazol-4-yl)-1H-indole] |
| 1000 to 10000 | 170.6 to 171.9 | – | CS(=O)(=O)CCn1cc(-c2c[nH]c3cc(F)c(F)cc23)cn1 [Example 32, 5,6-difluoro-3-(1-(2-(methylsulfonyl)ethyl)-1H-pyrazol-4-yl)-1H-indole] |
| 1000 to 10000 | – | 1000 to 10000 | NC(=O)Cn1cc(-c2c[nH]c3cc(F)ccc23)cn1 [Example 38, 2-(4-(6-fluoro-1H-indol-3-yl)-1H-pyrazol-1-yl)acetamide] |
| 1000 to 10000 | – | 1000 to 10000 | CNC(=O)Cn1cc(-c2c[nH]c3cc(F)ccc23)cn1 [Example 39, 2-(4-(6-fluoro-1H-indol-3-yl)-1H-pyrazol-1-yl)-N-methylacetamide] |
| 1000 to 10000 | – | 1000 to 10000 | CN(C)C(=O)Cn1cc(-c2c[nH]c3cc(F)ccc23)cn1 [Example 40, 2-(4-(6-fluoro-1H-indol-3-yl)-1H-pyrazol-1-yl)-N,N-dimethylacetamide] |
| < 1000 | – | < 1000 | Fc1ccc2c(-c3cnn(CC4CCNCC4)c3)c[nH]c2c1 [Example 43, 6-fluoro-3-(1-(piperidin-4-ylmethyl)-1H-pyrazol-4-yl)-1H-indole] |
| < 1000 | – | < 1000 | FCCN1CCC(Cn2cc(-c3c[nH]c4cc(F)ccc34)cn2)CC1 [Example 46, 6-fluoro-3-(1-((1-(2-fluoroethyl)piperidin-4-yl)methyl)-1H-pyrazol-4-yl)-1H-indole] |
| < 1000 | – | 1000 to 10000 | OCCN1CCC(Cn2cc(-c3c[nH]c4cc(F)ccc34)cn2)CC1 [Example 47, 2-(4-((4-(6-fluoro-1H-indol-3-yl)-1H-pyrazol-1-yl)methyl)piperidin-1-yl)ethanol] |
| < 1000 | – | < 1000 | OC(CN1CCC(Cn2cc(-c3c[nH]c4cc(F)ccc34)cn2)CC1)C(F)(F)F (stereo not drawn) [Example 48, 1,1,1-trifluoro-3-(4-((4-(6-fluoro-1H-indol-3-yl)-1H-pyrazol-1-yl)methyl)piperidin-1-yl)propan-2-ol] |
| 1000 to 10000 | – | < 1000 | CC(=O)N1CCC(Cn2cc(-c3c[nH]c4cc(F)ccc34)cn2)CC1 [Example 51, 1-(4-((4-(6-fluoro-1H-indol-3-yl)-1H-pyrazol-1-yl)methyl)piperidin-1-yl)ethanone] |
| < 1000 | – | < 1000 | Fc1ccc2c(-c3cnn(CC4CCN(C5CC5)CC4)c3)c[nH]c2c1 [Example 52, 3-(1-((1-cyclopropylpiperidin-4-yl)methyl)-1H-pyrazol-4-yl)-6-fluoro-1H-indole] |
| < 1000 | – | < 1000 | CN1CCC(Cn2cc(-c3c[nH]c4cc(F)ccc34)cn2)CC1 [Example 53, 6-fluoro-3-(1-((1-methylpiperidin-4-yl)methyl)-1H-pyrazol-4-yl)-1H-indole] |
| 1000 to 10000 | – | 1000 to 10000 | CS(=O)(=O)N1CCC(Cn2cc(-c3c[nH]c4cc(F)ccc34)cn2)CC1 [Example 54, 6-fluoro-3-(1-((1-(methylsulfonyl)piperidin-4-yl)methyl)-1H-pyrazol-4-yl)-1H-indole] |
| 1000 to 10000 | – | < 1000 | NC(=O)[C@H]1C[C@@H](n2cc(-c3c[nH]c4cc(F)ccc34)cn2)C1 [Example 61, (1S,3R)-3-(4-(6-fluoro-1H-indol-3-yl)-1H-pyrazol-1-yl)cyclobutanecarboxamide] |
| 1000 to 10000 | – | 1000 to 10000 | NC(=O)[C@H]1C[C@H](n2cc(-c3c[nH]c4cc(F)ccc34)cn2)C1 [Example 62, (1R,3R)-3-(4-(6-fluoro-1H-indol-3-yl)-1H-pyrazol-1-yl)cyclobutanecarboxamide] |
| 1000 to 10000 | – | 1000 to 10000 | O[C@H]1CC[C@H](n2cc(-c3c[nH]c4cc(F)ccc34)cn2)CC1 [Example 69, (1R,4R)-4-(4-(6-fluoro-1H-indol-3-yl)-1H-pyrazol-1-yl)cyclohexanol] |

| IC50 [1] [nM] | melting point [°C] | IC50 [2] [nM] | SMILES |
| --- | --- | --- | --- |
| < 1000 | – | < 1000 | Fc1ccc2c(-c3cn[nH]c3)c[nH]c2c1 [Example 70, 6-fluoro-3-(1H-pyrazol-4-yl)-1H-indole] |
| < 1000 | – | < 1000 | Fc1cc2[nH]cc(-c3cn[nH]c3)c2cc1F [Example 71, 5,6-difluoro-3-(1H-pyrazol-4-yl)-1H-indole] |
| < 1000 | – | < 1000 | Cn1cc(-c2c[nH]c3cc(F)ccc23)cn1 [Example 73, 6-fluoro-3-(1-methyl-1H-pyrazol-4-yl)-1H-indole] |
| 10000 to 100000 | 226 to 228 | – | O=C(O)CCC(=O)N1CCC(n2cc(-c3c[nH]c4cc(F)ccc34)cn2)CC1 [Example 80, 4-(4-(4-(6-fluoro-1H-indol-3-yl)-1H-pyrazol-1-yl)piperidin-1-yl)-4-oxobutanoic acid] |
| 1000 to 10000 | 193.7 to 196.1 | – | CN(C)CC(=O)N1CCC(n2cc(-c3c[nH]c4cc(F)ccc34)cn2)CC1 [Example 83, 2-(dimethylamino)-1-(4-(4-(6-fluoro-1H-indol-3-yl)-1H-pyrazol-1-yl)piperidin-1-yl)ethanone] |
| 1000 to 10000 | 99.9 to 102.1 | – | O=C(CO)N1CCC(n2cc(-c3c[nH]c4cc(F)ccc34)cn2)CC1 [Example 84, 1-(4-(4-(6-fluoro-1H-indol-3-yl)-1H-pyrazol-1-yl)piperidin-1-yl)-2-hydroxyethanone] |
| 1000 to 10000 | – | 1000 to 10000 | COCC(=O)N1CCC(n2cc(-c3c[nH]c4cc(F)ccc34)cn2)CC1 [Example 85, 1-(4-(4-(6-fluoro-1H-indol-3-yl)-1H-pyrazol-1-yl)piperidin-1-yl)-2-methoxyethanone] |
| 1000 to 10000 | 210.2 to 211 | – | CC(C)C(=O)N1CCC(n2cc(-c3c[nH]c4cc(F)ccc34)cn2)CC1 [Example 86, 1-(4-(4-(6-fluoro-1H-indol-3-yl)-1H-pyrazol-1-yl)piperidin-1-yl)-2-methylpropan-1-one] |
| 1000 to 10000 | 231 to 232 | – | CC(C)(C)C(=O)N1CCC(n2cc(-c3c[nH]c4cc(F)ccc34)cn2)CC1 [Example 87, 1-(4-(4-(6-fluoro-1H-indol-3-yl)-1H-pyrazol-1-yl)piperidin-1-yl)-2,2-dimethylpropan-1-one] |
| 1000 to 10000 | 190.7 to 191.4 | – | O=C(C1CC1)N1CCC(n2cc(-c3c[nH]c4cc(F)ccc34)cn2)CC1 [Example 88, cyclopropyl(4-(4-(6-fluoro-1H-indol-3-yl)-1H-pyrazol-1-yl)piperidin-1-yl)methanone] |
| 1000 to 10000 | – | < 1000 | Fc1ccc2c(-c3cnn(-c4cccnn4)c3)c[nH]c2c1 [Example 107, 6-fluoro-3-(1-(pyridazin-3-yl)-1H-pyrazol-4-yl)-1H-indole] |
| 1000 to 10000 | – | < 1000 | Nc1ccc(-n2cc(-c3c[nH]c4cc(F)ccc34)cn2)nn1 [Example 109, 6-(4-(6-fluoro-1H-indol-3-yl)-1H-pyrazol-1-yl)pyridazin-3-amine] |
| 1000 to 10000 | – | 1000 to 10000 | Fc1ccc2c(-c3cnn(-c4ccnnc4)c3)c[nH]c2c1 [Example 110, 6-fluoro-3-(1-(pyridazin-4-yl)-1H-pyrazol-4-yl)-1H-indole] |
| < 1000 | – | < 1000 | Fc1ccc2c(-c3cnn(-c4ccccn4)c3)c[nH]c2c1 [Example 111, 6-fluoro-3-(1-(pyridin-2-yl)-1H-pyrazol-4-yl)-1H-indole] |
| < 1000 | – | < 1000 | Fc1ccc2c(-c3cnn(-c4cccnc4)c3)c[nH]c2c1 [Example 112, 6-fluoro-3-(1-(pyridin-3-yl)-1H-pyrazol-4-yl)-1H-indole] |
| < 1000 | – | < 1000 | Fc1ccc2c(-c3cnn(-c4ccncc4)c3)c[nH]c2c1 [Example 113, 6-fluoro-3-(1-(pyridin-4-yl)-1H-pyrazol-4-yl)-1H-indole] |
